Data taken from publication PMC7578299, “The antiviral effects of baloxavir marboxil against influenza A virus infection in ferrets” (Influenza and Other Respiratory Viruses, 2020).

Assay: Simulated plasma concentration of BXA (non-parametric superposition, Phoenix WinNonlin)
Set-up: species or system ferret
Details: for terminal elimination half-life extrapolated from mean plasma concentrations between 6 and 24 hours: four ferrets; for Ratio of BXA concentration to EC90: EC90 0.42 ng/mL; for Ratio of BXA concentration to Target concentration: target 6.85 ng/mL
Source text: Plasma concentrations of BXA after dosing of BXM twice daily were estimated using the non‐parametric superposition function in Phoenix WinNonlin software (https://onlinehelp.certara.com/phoenix/8.2/topics/nonparasuper.htm) based on the mean plasma concentrations of BXA following single‐dose administration of BXM. Dosing type was used as “Variable.” The computation method used for interpolation and extrapolation of untransformed data was selected as logarithm (Log).

[1] = two doses BXM 10 mg/kg, 24 hours after first dosing
[2] = two doses BXM 10 mg/kg, 48 hours after first dosing
[3] = two doses BXM 30 mg/kg, 24 hours after first dosing
[4] = two doses BXM 30 mg/kg, 48 hours after first dosing

O=C1c2c(O)c(=O)ccn2N([C@@H]2c3ccccc3SCc3c2ccc(F)c3F)[C@@H]2COCCN12 [BXA, baloxavir acid]
terminal elimination half-life extrapolated from mean plasma concentrations between 6 and 24 hours (BXM 10 mg/kg): 6.57 h
terminal elimination half-life extrapolated from mean plasma concentrations between 6 and 24 hours (BXM 30 mg/kg): 4.08 h
Simulated plasma concentration (BXM single dose 10 mg/kg, 2.5 h): 48.5 ng/mL
Simulated plasma concentration (BXM single dose 10 mg/kg, 3 h): 42.6 ng/mL
Simulated plasma concentration (BXM single dose 10 mg/kg, 3.5 h): 37.5 ng/mL
Simulated plasma concentration (BXM single dose 10 mg/kg, 4 h): 33.0 ng/mL
Simulated plasma concentration (BXM single dose 10 mg/kg, 4.5 h): 29.1 ng/mL
Simulated plasma concentration (BXM single dose 10 mg/kg, 5 h): 25.7 ng/mL
Simulated plasma concentration (BXM single dose 10 mg/kg, 5.5 h): 22.7 ng/mL
Simulated plasma concentration (BXM single dose 10 mg/kg, 6 h): 20.0 ng/mL
Simulated plasma concentration (BXM single dose 10 mg/kg, 6.5 h): 19.1 ng/mL
Simulated plasma concentration (BXM single dose 10 mg/kg, 7 h): 18.3 ng/mL
Simulated plasma concentration (BXM single dose 10 mg/kg, 7.5 h): 17.5 ng/mL
Simulated plasma concentration (BXM single dose 10 mg/kg, 8 h): 16.7 ng/mL
Simulated plasma concentration (BXM single dose 10 mg/kg, 8.5 h): 15.8 ng/mL
Simulated plasma concentration (BXM single dose 10 mg/kg, 9 h): 15.0 ng/mL
Simulated plasma concentration (BXM single dose 10 mg/kg, 9.5 h): 14.2 ng/mL
Simulated plasma concentration (BXM single dose 10 mg/kg, 10 h): 13.5 ng/mL
Simulated plasma concentration (BXM single dose 10 mg/kg, 10.5 h): 12.8 ng/mL
Simulated plasma concentration (BXM single dose 10 mg/kg, 11 h): 12.1 ng/mL
Simulated plasma concentration (BXM single dose 10 mg/kg, 11.5 h): 11.5 ng/mL
Simulated plasma concentration (BXM single dose 10 mg/kg, 12 h): 10.9 ng/mL
Simulated plasma concentration (BXM single dose 10 mg/kg, 12.5 h): 10.3 ng/mL
Simulated plasma concentration (BXM single dose 10 mg/kg, 13 h): 9.80 ng/mL
Simulated plasma concentration (BXM single dose 10 mg/kg, 13.5 h): 9.29 ng/mL
Simulated plasma concentration (BXM single dose 10 mg/kg, 47.5 h): 0.254 ng/mL
Simulated plasma concentration (BXM single dose 10 mg/kg, 48 h): 0.241 ng/mL
Simulated plasma concentration (BXM single dose 30 mg/kg, 2.5 h): 316 ng/mL
Simulated plasma concentration (BXM single dose 30 mg/kg, 3 h): 292 ng/mL
Simulated plasma concentration (BXM single dose 30 mg/kg, 3.5 h): 269 ng/mL
Simulated plasma concentration (BXM single dose 30 mg/kg, 4 h): 248 ng/mL
Simulated plasma concentration (BXM single dose 30 mg/kg, 4.5 h): 235.6 ng/mL
Simulated plasma concentration (BXM single dose 30 mg/kg, 5 h): 223.8 ng/mL
Simulated plasma concentration (BXM single dose 30 mg/kg, 5.5 h): 212.6 ng/mL
Simulated plasma concentration (BXM single dose 30 mg/kg, 6 h): 202 ng/mL
Simulated plasma concentration (BXM single dose 30 mg/kg, 6.5 h): 190.3 ng/mL
Simulated plasma concentration (BXM single dose 30 mg/kg, 7 h): 179.2 ng/mL
Simulated plasma concentration (BXM single dose 30 mg/kg, 7.5 h): 168.8 ng/mL
Simulated plasma concentration (BXM single dose 30 mg/kg, 8 h): 159 ng/mL
Simulated plasma concentration (BXM single dose 30 mg/kg, 8.5 h): 146 ng/mL
Simulated plasma concentration (BXM single dose 30 mg/kg, 9 h): 134 ng/mL
Simulated plasma concentration (BXM single dose 30 mg/kg, 9.5 h): 123 ng/mL
Simulated plasma concentration (BXM single dose 30 mg/kg, 10 h): 112 ng/mL
Simulated plasma concentration (BXM single dose 30 mg/kg, 10.5 h): 103 ng/mL
Simulated plasma concentration (BXM single dose 30 mg/kg, 11 h): 94.5 ng/mL
Simulated plasma concentration (BXM single dose 30 mg/kg, 11.5 h): 86.6 ng/mL
Simulated plasma concentration (BXM single dose 30 mg/kg, 12 h): 79.4 ng/mL
Simulated plasma concentration (BXM single dose 30 mg/kg, 12.5 h): 72.8 ng/mL
Simulated plasma concentration (BXM single dose 30 mg/kg, 13 h): 66.8 ng/mL
Simulated plasma concentration (BXM single dose 30 mg/kg, 13.5 h): 61.2 ng/mL
Simulated plasma concentration (BXM single dose 30 mg/kg, 47.5 h): 0.184 ng/mL
Simulated plasma concentration (BXM single dose 30 mg/kg, 48 h): 0.169 ng/mL
Simulated plasma concentration (BXM two doses 10 mg/kg (0 and 12 h), 2.5 h): 48.5 ng/mL
Simulated plasma concentration (BXM two doses 10 mg/kg (0 and 12 h), 3 h): 42.6 ng/mL
Simulated plasma concentration (BXM two doses 10 mg/kg (0 and 12 h), 3.5 h): 37.5 ng/mL
Simulated plasma concentration (BXM two doses 10 mg/kg (0 and 12 h), 4 h): 33.0 ng/mL
Simulated plasma concentration (BXM two doses 10 mg/kg (0 and 12 h), 4.5 h): 29.1 ng/mL
Simulated plasma concentration (BXM two doses 10 mg/kg (0 and 12 h), 5 h): 25.7 ng/mL
Simulated plasma concentration (BXM two doses 10 mg/kg (0 and 12 h), 5.5 h): 22.7 ng/mL
Simulated plasma concentration (BXM two doses 10 mg/kg (0 and 12 h), 6 h): 20.0 ng/mL
Simulated plasma concentration (BXM two doses 10 mg/kg (0 and 12 h), 6.5 h): 19.1 ng/mL
Simulated plasma concentration (BXM two doses 10 mg/kg (0 and 12 h), 7 h): 18.3 ng/mL
Simulated plasma concentration (BXM two doses 10 mg/kg (0 and 12 h), 7.5 h): 17.5 ng/mL
Simulated plasma concentration (BXM two doses 10 mg/kg (0 and 12 h), 8 h): 16.7 ng/mL
Simulated plasma concentration (BXM two doses 10 mg/kg (0 and 12 h), 8.5 h): 15.8 ng/mL
Simulated plasma concentration (BXM two doses 10 mg/kg (0 and 12 h), 9 h): 15.0 ng/mL
Simulated plasma concentration (BXM two doses 10 mg/kg (0 and 12 h), 9.5 h): 14.2 ng/mL
Simulated plasma concentration (BXM two doses 10 mg/kg (0 and 12 h), 10 h): 13.5 ng/mL
Simulated plasma concentration (BXM two doses 10 mg/kg (0 and 12 h), 10.5 h): 12.8 ng/mL
Simulated plasma concentration (BXM two doses 10 mg/kg (0 and 12 h), 11 h): 12.1 ng/mL
Simulated plasma concentration (BXM two doses 10 mg/kg (0 and 12 h), 11.5 h): 11.5 ng/mL
Simulated plasma concentration (BXM two doses 10 mg/kg (0 and 12 h), 12 h (dosing)): 10.9 ng/mL
Simulated plasma concentration (BXM two doses 10 mg/kg (0 and 12 h), 12.5 h): 43.5 ng/mL
Simulated plasma concentration (BXM two doses 10 mg/kg (0 and 12 h), 13 h): 65.9 ng/mL
Simulated plasma concentration (BXM two doses 10 mg/kg (0 and 12 h), 13.5 h): 64.9 ng/mL
Simulated plasma concentration (BXM two doses 10 mg/kg (0 and 12 h), 24 h): 13.9 ng/mL
Simulated plasma concentration (BXM two doses 10 mg/kg (0 and 12 h), 47.5 h): 1.16 ng/mL
Simulated plasma concentration (BXM two doses 10 mg/kg (0 and 12 h), 48 h): 1.10 ng/mL
Simulated plasma concentration (BXM two doses 30 mg/kg (0 and 12 h), 2.5 h): 316 ng/mL
Simulated plasma concentration (BXM two doses 30 mg/kg (0 and 12 h), 3 h): 292 ng/mL
Simulated plasma concentration (BXM two doses 30 mg/kg (0 and 12 h), 3.5 h): 269 ng/mL
Simulated plasma concentration (BXM two doses 30 mg/kg (0 and 12 h), 4 h): 248 ng/mL
Simulated plasma concentration (BXM two doses 30 mg/kg (0 and 12 h), 4.5 h): 236 ng/mL
Simulated plasma concentration (BXM two doses 30 mg/kg (0 and 12 h), 5 h): 224 ng/mL
Simulated plasma concentration (BXM two doses 30 mg/kg (0 and 12 h), 5.5 h): 213 ng/mL
Simulated plasma concentration (BXM two doses 30 mg/kg (0 and 12 h), 6 h): 202 ng/mL
Simulated plasma concentration (BXM two doses 30 mg/kg (0 and 12 h), 6.5 h): 190 ng/mL
Simulated plasma concentration (BXM two doses 30 mg/kg (0 and 12 h), 7 h): 179 ng/mL
Simulated plasma concentration (BXM two doses 30 mg/kg (0 and 12 h), 7.5 h): 169 ng/mL
Simulated plasma concentration (BXM two doses 30 mg/kg (0 and 12 h), 8 h): 159 ng/mL
Simulated plasma concentration (BXM two doses 30 mg/kg (0 and 12 h), 8.5 h): 146 ng/mL
Simulated plasma concentration (BXM two doses 30 mg/kg (0 and 12 h), 9 h): 134 ng/mL
Simulated plasma concentration (BXM two doses 30 mg/kg (0 and 12 h), 9.5 h): 123 ng/mL
Simulated plasma concentration (BXM two doses 30 mg/kg (0 and 12 h), 10 h): 112 ng/mL
Simulated plasma concentration (BXM two doses 30 mg/kg (0 and 12 h), 10.5 h): 103 ng/mL
Simulated plasma concentration (BXM two doses 30 mg/kg (0 and 12 h), 11 h): 94.5 ng/mL
Simulated plasma concentration (BXM two doses 30 mg/kg (0 and 12 h), 11.5 h): 86.6 ng/mL
Simulated plasma concentration (BXM two doses 30 mg/kg (0 and 12 h), 12 h (dosing)): 79.4 ng/mL
Simulated plasma concentration (BXM two doses 30 mg/kg (0 and 12 h), 12.5 h): 208 ng/mL
Simulated plasma concentration (BXM two doses 30 mg/kg (0 and 12 h), 13 h): 405 ng/mL
Simulated plasma concentration (BXM two doses 30 mg/kg (0 and 12 h), 47.5 h): 1.60 ng/mL
Simulated plasma concentration (BXM two doses 30 mg/kg (0 and 12 h), 48 h): 1.47 ng/mL
Ratio of BXA concentration to EC90 [1]: × 33.2
Ratio of BXA concentration to Target concentration [1]: × 2.0
Ratio of BXA concentration to EC90 [2]: × 2.6
Ratio of BXA concentration to Target concentration [2]: × 0.16
Ratio of BXA concentration to EC90 [3]: × 213
Ratio of BXA concentration to Target concentration [3]: × 13.0
Ratio of BXA concentration to EC90 [4]: × 3.5
Ratio of BXA concentration to Target concentration [4]: × 0.21
